Measurements reported in paper PMC5735564 (Journal for Immunotherapy of Cancer, 2017).
“Also recorded” adds a separate entry of the source. Read-outs that look alike come from different tables or passages of the source.

Legend:
[1] = target: T1, Recombinant human Arg2 (Homo sapiens, UniProt P78540); experiment: Recombinant arginase activity assay (Arg2); format: biochemical; details: 20 mM L-arginine; N = 2; mean (±SD)
T1 construct: Recombinant human arginase 2 (Arg2) comprising amino acids 23–254 was purchased from US Biological; purchased US Biological (Salem, MA)
T1 sequence (P78540 23-354): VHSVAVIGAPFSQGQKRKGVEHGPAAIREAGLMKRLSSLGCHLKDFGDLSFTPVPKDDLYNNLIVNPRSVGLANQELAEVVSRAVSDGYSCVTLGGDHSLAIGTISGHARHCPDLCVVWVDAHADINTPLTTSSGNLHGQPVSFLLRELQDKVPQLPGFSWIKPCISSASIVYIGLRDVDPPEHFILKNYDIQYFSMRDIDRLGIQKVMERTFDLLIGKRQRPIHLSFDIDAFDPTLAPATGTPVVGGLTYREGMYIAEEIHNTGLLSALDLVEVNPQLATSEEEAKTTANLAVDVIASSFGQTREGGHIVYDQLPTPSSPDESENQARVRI
Procedure: Recombinant human arginase 2 (Arg2) comprising amino acids 23–254 was purchased from US Biological (Salem, MA). […] Activity was determined by a spectrophotometric assay using the QuantiChrom Urea Assay Kit (BioAssay Systems, Hayward, CA) or by quantification of the generation of ^13C(5)-L-ornithine from ^13C(6)-L-arginine using a SCIEX API4000 mass spectrometer (Applied Biosystems, Foster City, CA). Urea produced or ^13C(5)-L-ornithine peak areas were plotted and fitted to a four-parameter equation using GraphPad Prism software (San Diego, CA) to determine IC50 values.

[2] = system: intracellular arginase in K562 cell line; experiment: Native arginase activity in intact K-562 cells; format: cell-based, human; details: 10 mM L-arginine; urea in media after 24 h; N = 2; mean (±SD)
Procedure: (§2) Intracellular arginase activity was determined for the arginase-expressing HepG2 and K-562 cell lines as follows. […] The medium was harvested after 24 h and urea generated was determined with the QuantiChrom Urea Assay Kit. Wells containing media without cells were used as background controls.

[3] = system: intracellular arginase in HepG2 cell line; experiment: Native arginase activity in intact HepG2 cells; format: cell-based, human; details: 10 mM L-arginine; urea in media after 24 h; N = 3; mean (±SD)
Procedure: as §2

[4] = system: CT26 tumors; experiment: CT26 syngeneic tumor model
Procedure: Female wild-type C57BL/6 and Balb/c mice (5–6 weeks old) were purchased from Charles River Laboratories (Hollister, CA). Severe combined immune deficient (SCID, B6.CB17-PrkdcSCID/SzJ) and Pmel-1 TCR transgenic (B6.Cg-Thy1a/Cy Tg(TcraTcrb)8Rest/J) mice (5–6 weeks old) were purchased from The Jackson Laboratory (Bar Harbor, ME). All mice were housed and treated in accordance with Institutional Animal Care and Use Committee guidelines. For the 4T1 tumor model, 10^5 cells were injected orthotopically into the mammary fat pad; for all other tumor models, 10^6 cells were injected subcutaneously (s.c.) in the right flank. […] Control groups received vehicle (water) twice daily by gavage. Tumor volume measured by digital caliper (length × width × width/2) and body weight were recorded three times per week. Animals were euthanized when tumors necrotized or volumes reached 2000 mm^3. For the CT26 model, anti-PD-L1 antibody (5 mg/kg, clone 10F.9G2, BioXCell, West Lebanon, NH) was injected intraperitoneally (i.p.) on days 5, 7, 9, 11, 13, and 15. […] Gemcitabine (Selleckchem, Houston, TX) was dosed 50 mg/kg i.p. on days 10 and 16 for the CT26 model, 60 mg/kg i.p. on days 6 and 10 for the LLC model, or 30 mg/kg i.p. on day 5 for the 4T1 model [17, 18]. […] For CD8^+ cell depletion, mice were injected i.p. with anti-CD8 antibody (25 mg/kg, clone 2.43, BioXCell) on days −1, 0, + 5, and +10. For NK cell depletion, mice were injected i.p. with anti-NK1.1 antibody (25 mg/kg, clone PK136, BioXCell) in the LLC and B16 models or with anti-Asialo GM1 sera (20 μL, Wako Chemicals, Richmond, VA) in the CT26 model, per the same schedule as anti-CD8.
Excised tumors were placed on ice in RPMI-1640 medium containing 5% FBS, minced with a razor blade, and dissociated in RPMI-1640 supplemented with mouse tumor dissociation enzymes (Miltenyi Biotec, Bergisch Gladbach, Germany) on a GentleMACS Octo Dissociator With Heat (Miltenyi Biotec) according to the manufacturer’s instructions. Dissociated tumors were strained through 70 μm nylon mesh, washed with cold PBS containing 2% FBS, blocked with anti-CD16/CD32 (Fc block antibody, eBioscience), and stained for cell surface antigens. For B16 and 4T1 tumors, washed dissociated tumor cells were incubated with Dead Cell Removal MicroBeads (Miltenyi Biotec) and applied to a magnetic column prior to staining. For intracellular staining, cells were fixed and permeabilized using buffers purchased from R&D Systems or eBioscience for cytoplasmic or nuclear antigens, respectively. All tumor flow experiments were acquired on an Attune NxT flow cytometer and analyzed with FlowJo software version 10 (Ashland, OR), using fluorescence-minus-one controls for gating and single-stained OneComp eBeads (eBioscience) to set compensation matrices.

[5] = system: LLC tumors; experiment: LLC tumors in SCID mice; format: in vivo, mouse; details: 100 mg/kg twice daily
[6] = system: LLC tumors; experiment: LLC tumors in conditional Arg1 deleted mice; format: in vivo, mouse; details: 100 mg/kg every 12 h for 14 days, oral
Procedure: Arg1 floxed mice were crossed to the Tie2-Cre deleter strain (The Jackson Laboratory) as previously described. Experimental mice were generated from crossing Arg1 ^Flox/Flox; Tie2-Cre ^+ males with Arg1 ^Flox/Flox; Tie2-Cre ^− females, with Cre negative littermates serving as wild-type controls. […] LLC cells (10^6 per mouse) were injected s.c. in the flank region. […] Mice were euthanized, and tumors excised and weights recorded. Myeloid deletion of Arg1 was confirmed via western blotting of IL-4-stimulated bone marrow-derived macrophages for all animals.

[7] = system: granulocytes from a head and neck cancer patient / healthy donor T cells; experiment: T cell proliferation in granulocyte-conditioned media (head and neck cancer patient); format: cell-based, human
Procedure: (§1) Freshly isolated granulocytes were incubated for 48 h at 37 °C, during which time they spontaneously activate as determined by increased surface expression of CD66b and scatter properties. T cells isolated from the same healthy donor using a pan-T cell isolation kit (Stemcell Technologies) were loaded with CFSE and plated with immobilized anti-CD3 and soluble anti-CD28 in the presence of the aged granulocytes. The cells were co-cultured at several ratios of granulocytes to T cells as indicated in the figure or at a fixed ratio of 4 T cells to 1 granulocyte. Co-cultures were incubated for 3–4 days, at which time the medium was analyzed for L-arginine and L-ornithine by mass spectrometry and T cell proliferation was determined by flow cytometry. Granulocytic MDSC (G-MDSC) or granulocytes from cancer patients were isolated from whole blood purchased from Conversant Biologics. G-MDSCs were purified from the PBMC layer of a Ficoll gradient by positive selection for CD66b^+ cells. Granulocytes were purified from the RBC layer of a Ficoll gradient using Hetasep (Stemcell Technologies). Granulocytes and G-MDSCs were characterized by flow cytometry for CD66b expression. Freshly isolated G-MDSC or granulocytes were incubated in co-culture medium containing 100 μM L-arginine for 48 h, at which time the cells were removed and the G-MDSC- or granulocyte-conditioned media were used for incubating healthy donor CFSE-loaded T cells on immobilized anti-CD3/soluble anti-CD28 for 3–4 days. Cytokines were quantified in the media from T cell co-culture assays using the Cytometric Bead Array kit according to the manufacturer’s instructions (BD Biosciences).

[8] = system: human granulocytes co-cultured with autologous T cells; experiment: T cell/granulocyte co-culture assay (healthy donor); format: cell-based; details: for IC50: Homo sapiens, T-cell, granulocytes to T cells 0.25 to 1
Procedure: T cells or NK cells were purified from healthy donor human blood or from murine splenocytes using a negative selection kit for the appropriate cell type and species from Stemcell Technologies. Isolated T cells or NK cells were loaded with carboxyfluorescein succinimidyl ester (CFSE, Thermo Fisher) and stimulated for 72–96 h in complete growth medium containing a minimum of either 50 μM L-arginine (NK cells) or 100 μM L-arginine (T cells). For T cell stimulation, a solution of 10 μg/mL anti-CD3 (human clones UCHT1 or OKT3; murine clone 145-2C11) was used to coat the wells of a 96-well plate and then T cells were stimulated on immobilized anti-CD3 in the presence of 2 μg/mL soluble anti-CD28 (human clone CD28.2; murine clone 37.51). NK cells were stimulated with recombinant IL-2. Proliferation was quantified by analyzing CFSE dilution by flow cytometry (Guava flow cytometer, Millipore, Billerica, MA or Attune NxT flow cytometer, ThermoFisher).
as §1, with “Co-cultures were incubated for 3–4 days, at which time the medium was analyzed for L-arginine and L-ornithine by mass spectrometry and T cell proliferation was determined by flow cytometry.” left out, “Granulocytes and G-MDSCs were characterized by flow cytometry for CD66b expression. Freshly isolated G-MDSC or granulocytes were incubated in co-culture medium containing 100 μM L-arginine for 48 h, at which time the cells were removed and the G-MDSC- or granulocyte-conditioned media were used for incubating healthy donor CFSE-loaded T cells on immobilized anti-CD3/soluble anti-CD28 for 3–4 days.” left out

[9] = system: LLC tumors; experiment: LLC syngeneic tumor model; format: in vivo, mouse
[10] = Tolerability in mice
[11] = system: granulocytic MDSCs from a lung cancer patient / healthy donor T cells; experiment: T cell proliferation in G-MDSC-conditioned media (lung cancer patient); format: cell-based, human
Procedure: as §1, with “Freshly isolated G-MDSC or granulocytes were incubated in co-culture medium containing 100 μM L-arginine for 48 h, at which time the cells were removed and the G-MDSC- or granulocyte-conditioned media were used for incubating healthy donor CFSE-loaded T cells on immobilized anti-CD3/soluble anti-CD28 for 3–4 days.” left out

[12] = system: 4T1 tumors; experiment: 4T1 orthotopic tumor model; format: in vivo, mouse
[13] = Pharmacokinetic and pharmacodynamic study in LLC tumor-bearing mice; format: in vivo, mouse; details: oral dosing, pharmacodynamic effect
[14] = system: B16 tumors; experiment: B16 syngeneic tumor model; format: in vivo, mouse
[15] = system: tumor growth; set-up: method as in PMID 15313928; details: cited from earlier work
[16] = set-up: method as in PMID 20219858; details: nor-NOHA injected over a period of 10 weeks; cited from earlier work
[17] = 100 mg/kg twice daily, depleting antibodies
[18] = flow cytometry, study day 14, 100 mg/kg BID
[19] = 100 mg/kg twice daily for 23 days, CT26-inoculated mice
[20] = flow cytometry, study day 10, 100 mg/kg BID

SMILES: C[C@H](N)C(=O)N1C[C@H](CCCB(O)O)[C@](N)(C(=O)O)C1 [CB-1158]
- IC50 [1]: 296 nM
- IC50 [2]: 139000 nM
- IC50 [3]: 32000 nM
- tumor growth, single agent ([4]; 100 mg/kg twice daily, oral): significantly inhibited
- efficacy after depletion of either CD8+ cells or NK cells [4, 17]: blocked the efficacy
- tumor-infiltrating activated CD8+ CD25+ cytotoxic T cells vs vehicle [4, 18]: increase
- efficacy in the SCID background [5]: abrogated
- tumor growth in Arg flox/flox; Tie2-Cre+ (ARG1ΔM) mice [6]: no further reduction in tumor growth
- arginine depletion from the media ([7]; granulocyte-conditioned media): blocked
- T cell proliferation restored, of control levels ([7]; granulocyte-conditioned media, granulocytes to T cells 0.5 to 1): 79%
- secretion of interferon-γ and granzyme-B into the media ([7]; media from Fig. 1f, Cytometric Bead Array): restored
- IC50 ([8]; Fig. 1d left, read-out: IC50, consumption of L-arginine from the media by granulocytes): 411 nM
- IC50 ([8]; Fig. 1d right, read-out: IC50, granulocyte-mediated suppression of T cell proliferation): 204 nM
- T cell proliferation restored, of the proliferation observed for T cells without granulocytes ([8]; co-culture with activated granulocytes): 90%
- tumor growth, single agent ([9]; 100 mg/kg twice daily, oral): significantly inhibited
- effect of depletion of CD8+ cells on efficacy ([9]; 100 mg/kg twice daily, study day 13): smaller effect
- efficacy after depletion of NK cells ([9]; 100 mg/kg twice daily, study day 14): loss of efficacy
- inflammatory cytokines in tumors vs vehicle ([9]; Luminex, 200 mg/kg twice daily for 14 days): increases
- transcripts of interferon-responsive genes in tumors vs vehicle ([9]; Nanostring, 100 mg/kg twice daily for 13 days): increases
- CD8+ T cells in the tumor vs vehicle [9, 18]: increase
- CD68+ macrophages in the tumor vs vehicle [9, 18]: decrease
- clinical observations and body weight [10, 19]: no significant clinical observations or impact on body weight
- tolerability [10, 19]: well-tolerated
- tolerability ([10]; twice-daily oral dosing for at least 40 days): well-tolerated
- arginine depletion from the media [11]: blocked
- T cell proliferation restored, of control levels ([11]; MDSCs to T cells 1 to 1): 99%
- tumor growth, single agent ([12]; 100 mg/kg twice daily, oral): significantly inhibited; also recorded: modest effect
- CD3+ T cells in the tumor vs vehicle [12, 20]: increase
- NK cells in the tumor vs vehicle [12, 20]: increase
- myeloid cells in the tumor vs vehicle [12, 20]: decrease
- amount of L-arginine in plasma and tumors [13]: raised
- tumor growth, single agent ([14]; 100 mg/kg twice daily, oral): significantly inhibited
- efficacy after depletion of either CD8+ cells or NK cells [14, 17]: blocked the efficacy
- tumor-infiltrating activated CD8+ CD25+ cytotoxic T cells vs vehicle ([14]; flow cytometry, study day 9, 100 mg/kg BID): increase

SMILES: N=C(NO)NCC[C@H](N)C(=O)O [nor-NOHA]
- tumor growth ([15]; injection of nor-NOHA): reduced tumor growth
- tolerability ([15]; multi-day studies in mice): well-tolerated
- tolerability [16]: well-tolerated

SMILES: Nc1ccn([C@@H]2O[C@H](CO)[C@@H](O)C2(F)F)c(=O)n1 [Gemcitabine, gemcitabine, reference compound]
- CD11b+ myeloid cells in the tumors ([4]; flow cytometry, study day 14): significant decrease
